Measurements reported in PubChem BioAssay (NCI).
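In this assay, cells in 96-well plates receive the compound at five concentrations for 48 hours. Endpoints are linearly interpolated between the surrounding concentrations. At the GI50, growth is halved. TGI: total growth inhibition.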

Assays:
Assay in all cases: DTP human tumour cell line panel, 48 h
[1] = test system: NCI-H522 lung
[2] = test system: IGROV1 ovarian
[3] = test system: MCF7 breast
[4] = test system: SNB-75 CNS
[5] = test system: HCC-2998 colon
[6] = test system: HOP-62 NSCLC
[7] = test system: DU-145 prostate
[8] = test system: NCI-H23 lung
[9] = test system: SK-MEL-5 melanoma
[10] = test system: SK-OV-3 ovarian
[11] = test system: LOX IMVI melanoma
[12] = test system: SK-MEL-28 melanoma
[13] = test system: UO-31 renal
[14] = test system: MDA-MB-231 breast
[15] = test system: CCRF-CEM leukemia
[16] = test system: MALME-3M melanoma
[17] = test system: HOP-92 NSCLC
[18] = test system: OVCAR-3 ovarian
[19] = test system: A498 renal
[20] = test system: COLO 205 colon
[21] = test system: SW-620 colon
[22] = test system: UACC-62 melanoma
[23] = test system: HCT-15 colon
[24] = test system: RXF 393 renal
[25] = test system: A549 NSCLC

With `CCOC(=O)c1c(NC(=O)c2cccc(C(F)(F)F)c2)sc2c3c(ccc12)OCN(C)C3` the TGI [1] was 5550 nM, the GI50 [2] was 1690 nM and the TGI [2] was 3500 nM. The GI50 [3] was 1670 nM, the TGI [3] was 3300 nM and the GI50 [4] was 1530 nM. It also gave a TGI [4] of 3280 nM, a GI50 [5] of 1520 nM and a TGI [5] of 2980 nM. It also gave a GI50 [6] of 2330 nM, a TGI [6] of 6080 nM and a GI50 [7] of 1790 nM. For the same compound, the TGI [7] was 3230 nM, the GI50 [8] was 1890 nM and the TGI [8] was 3840 nM. For the same compound, the GI50 [9] was 1770 nM, the TGI [9] was 3270 nM and the GI50 [10] was 2070 nM. For the same compound, the TGI [10] was 4310 nM, the GI50 [11] was 1680 nM and the TGI [11] was 3250 nM. The GI50 [12] was 1710 nM, the TGI [12] was 3140 nM and the GI50 [13] was 1530 nM. It also gave a TGI [13] of 2940 nM, a GI50 [14] of 1700 nM and a TGI [14] of 3330 nM. It also gave a GI50 [15] of 1560 nM, a TGI [15] of 4620 nM and a GI50 [16] of 1980 nM. It also gave a TGI [16] of 3740 nM, a GI50 [17] of 1400 nM and a TGI [17] of 3050 nM. The GI50 [18] was 1700 nM, the TGI [18] was 3210 nM and the GI50 [19] was 1630 nM. It also gave a TGI [19] of 3070 nM, a GI50 [20] of 2210 nM and a TGI [20] of 5080 nM. The GI50 [21] was 873 nM, the TGI [21] was 2270 nM and the GI50 [22] was 1680 nM. For the same compound, the TGI [22] was 3170 nM, the GI50 [23] was 1310 nM and the TGI [23] was 2690 nM. The GI50 [24] was 1470 nM, the TGI [24] was 3020 nM and the GI50 [25] was 2070 nM. It also gave a TGI [25] of 4900 nM.
